In US20190154879A1, “Silicone Hydrogel Contact Lenses Having Improved Lubricity” (CooperVision International Holding Company, LP, priority 2016, published 2019):

How the values were obtained:
[1] = Hydrophilic-lipophilic balance (HLB) value; type: physicochemical; settings: calculated as twenty times molecular weight of hydrophilic portion divided by total molecular weight
[2] = tested on: rabbits; experiment: Cytotoxicity by ocular irritation study (ISO 10993-10); type: in vivo; settings: 0.035% in PBS, ocular irritation study in rabbits (ISO 10993-10)
Source text: An advantage of the surfactants used herein is that they are non-cytotoxic at concentrations effective at reducing surface concentration of silicon, and thus may be left in the final packaged contact lens. In contrast, other methods for reducing surface concentration of silicone of silicone hydrogel contact lenses employ toxic compounds that must be extracted from the contact lens prior to final packaging (see e.g. US Pat. Appin. Publ. No. 2014/0275434). Thus, the prior art method requires additional processing steps in order to provide an ophthalmically-acceptable contact lens, which add to manufacturing costs. Further, there is a desire to minimize the use of hazardous chemicals in manufacturing sites, which is another advantage of the present invention compared to the prior art. In specific examples, the concentration of the surfactant in the packaging solution prior to contact with the contact lens is from about 0.01 wt. % or 0.02 wt. %, up to about 0.05 wt. %, 0.075 wt. %, or 0.1 wt. %. Throughout this disclosure, when a series of lower limit ranges and a series of upper limit ranges are provided, all combinations of the provided ranges are contemplated as if each combination were specifically listed. […]
Because of the low CoF values obtained for both lenses, tyloxapol and RLM-100 were evaluated further for use as a possible packaging solution additive.

tyloxapol
HLB value [1]: about 13
cytotoxicity [2]: non-cytotoxic
